Values after ≈ are worked out from the molar mass of the structure shown. Ends that are not written are not given here. Peptide text beside a SMILES is read from it. * marks the point of attachment. For = O=C*
Assays:
C. albicans MYA-2876 = experiment: MIC, YPD broth; format: cell-based, Candida albicans; conditions: Table 8
How it was run: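 Minimum inhibitory concentrations against Candida albicans were determined in YPD broth (10 g/L yeast extract, 20 g/L peptone, 20 g/L dextrose) using peptides of 95% purity. A 180 μl volume of diluted yeast was combined with 20 μl of peptide in a 2-fold dilution series in 96-well plates, with sterile water as control, then incubated standing overnight at 37° C.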

SspA protease = SspA protease (Staphylococcus aureus, UniProt P0C1U8); experiment: SspA protease treatment, LC/MS analysis; format: in vitro ADME; conditions: in vitro, 37° C., ˜5 hours
Method: SspA protease treatment. SspA protease was resuspended at 2 mg/mL in 100 mM HEPES, pH 7.8. Proteolysis was achieved by incubation of 50 μg PSMs at 37° C. for ˜5 hours with 0.2 mg/mL SspA. The antimicrobial activity of the proteolytic products were assayed by spotting a 5 μL (˜45 μg) from each treated peptide on each test microorganism as described above.
HPLC/MS analysis. High performance liquid chromatography coupled to mass spectrometry (HPLC-MS) was conducted to assess the proteolytic cleavage of synthetic PSMs by the SspA protease, as described above. Both treated samples and untreated controls were incubated at 37° C. for 5 hours, and then frozen until HPLC/MS analysis. An Agilent Infinity II 1260 HPLC outfitted with a Phenomenex Lune C5 column (4.6×150 mm, 5 μm) was used to separate the peptide fragments using a binary solvent system consisting of solvent A (water, 0.05% formic acid) and solvent B (acetonitrile, 0.05% formic acid) operating at 0.7 mL/min. A 5 μl volume (˜4.5 μg) of each sample was injected at 10% solvent B, followed by a two-step gradient elution from 10 to 50% solvent B in 30 minutes, then 50 to 100% B in 10 minutes. The HPLC was coupled to an Advion CMS(L) single quadrupole mass detector through an electrospray ionization source. A line splitter from the HPLC to ESI source was used to deliver sample to the mass detector at 0.3 mL/min. An Advion expression-L CMS detector was used at low temperature and fragmentation settings: capillary temperature: 135° C., capillary voltage 120 V, source voltage offset 20 V, source gas temperature 135° C. and ESI voltage 3500 V. The range of ions detected was between 100 and 2,000 m/z.

[1] = tested on: Mannheimia haemolytica ATCC 33393; experiment: MIC, broth dilution; format: cell-based; conditions: Table 11; highest concentration 25 μg/mL
How it was run: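 Peptides (95% purity) in 2-fold dilution series were mixed with M. haemolytica diluted to OD 6×10^−4 in cation-adjusted Mueller Hinton broth and incubated standing overnight at 37 °C. MIC was the lowest concentration with no visible growth.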

[2] = tested on: Candida duobushaemulonii AR 392; experiment: MIC, YPD broth, CDC and FDA AR Candida isolate panel; format: cell-based; conditions: Table 9 top part: titrations from 1.56 to 100 μg/mL
How it was run: (§1)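 Medium: 10 g/L yeast extract, 20 g/L peptone, 20 g/L dextrose. Inoculum OD […]; peptides 95% purity, 2-fold series; overnight 37° C, standing.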

Kodamae ohmeri AR 396 = experiment: as above; format: cell-based; conditions: Table 9 top part: titrations from 1.56 to 100 μg/mL
How it was run: as §1

[3] = Circular dichroism spectroscopy; format: physicochemical; conditions: CD, 50% (v/v) TFE
How it was run: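 Secondary structure of peptides dissolved in water at 0.3–0.5 mg/mL was assessed by CD. Spectra were recorded from 180 to 260 nm at room temperature in a 0.1 cm quartz cuvette; water and 50% (v/v) TFE conditions were compared.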

HeLa cells = format: cell-based; conditions: 24 h, alamarBlue
Method: Peptide cytotoxicity. In vitro cytotoxicity was measured using the 3D EpiDerm skin tissues and HeLa Cells using a fluorescent reporter of cell viability, alamarBlue (ThermoFisher Scientific). 3D EpiDerm skin tissues (MatTek EPI-200-AFAB) were transferred to a 12 well plate containing 600 μL of AFAB-assay medium supplemented with 10% v/v alamarBlue. […] HeLa cells were seeded in a 96-well plate (2×10^4 cells/per well) and incubated overnight at 37° C. and 5% CO2 in a humidified incubator to prepare wells at ˜50% confluency of adherent cells. After the incubation, spent DMEM was removed and cells were washed with PBS. alamarBlue-containing medium was prepared by mixing Phenol Red-free DMEM with alamarBlue solution at a 9:1 ratio and a 180 μl volume was added to each well. Cells were treated with peptides varying from 3.25 to 200 μg/mL and then incubated for 24 h. The fluorescence intensities of treated cultures were normalized to values measured for an untreated control group. After the 24 h incubation period, alamarBlue fluorescence was measured at 590 nm upon excitation at 560 nm using Varioskan Lux plate reader (Thermo Scientific) plate reader.

M. luteus ATCC 4698 = experiment: MIC, broth dilution; format: cell-based, Micrococcus luteus; conditions: Table 4; liquid broth
Method: MIC determination. MICs were measured using peptides with 95% purity. For bacterial studies, cation-adjusted Mueller Hinton (MH) broth was used as the growth medium whereas Yeast Peptone Dextrose (YPD; 10 g/L yeast extract, 20 g/L peptone, 20 g/L dextrose) was used for Candida spp. and other yeast. Microorganisms were diluted to an optical density of […] in MH or YPD broth and a 180 μl volume was mixed with 20 μl of peptide arrayed as a 2-fold dilution series in a flat-bottom 96-well microtitre plate. A control was performed using 20 μl of sterile water. Plates were incubated as standing cultures overnight at 37° C.
Determination of minimum inhibitory concentrations. The MICs were measured for bioactive peptides identified from the initial screen. For bacterial studies, cation-adjusted Mueller Hinton (MH) broth was used as the growth medium whereas YPD was used for C. albicans. Bacterial cultures were diluted to a OD value of 6×10^−4 in MH broth and a 180 μl volume was mixed with 20 μl of peptide arrayed as 2-fold dilution series in a 96-well plate. For the positive control, 20 μl of sterile water was used. Plates were incubated as standing cultures overnight at 37° C. The lowest peptide concentration that resulted no observed microbial growth after an overnight treatment was defined as the MIC.

[4] = tested on: S. aureus ATCC BAA-42 (MRSA SCCmec type VI); experiment: MIC, broth dilution; format: cell-based, Staphylococcus aureus; conditions: Table 5; STIP3 variants, highest concentration 100 μg/mL
How it was run: (§2)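 Peptides of 95% purity tested as 2-fold dilution series against bacteria diluted to OD 6×10^−4 in cation-adjusted Mueller Hinton broth. Standing cultures incubated overnight at 37° C; MIC is the lowest concentration with no visible growth.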

[5] = tested on: S. aureus ATCC BAA-2094 (MRSA SCCmec type V); experiment: MIC, broth dilution; format: cell-based, Staphylococcus aureus; conditions: Table 5; STIP3 variants, highest concentration 100 μg/mL
How it was run: as §2

[6] = tested on: S. aureus ATCC 33592 (MRSA SCCmec type III); experiment: MIC, broth dilution; format: cell-based, Staphylococcus aureus; conditions: Table 5; STIP3 variants, highest concentration 100 μg/mL
How it was run: as §2

S. aureus ATCC 29213 = experiment: MIC, broth dilution; format: cell-based, Staphylococcus aureus
How it was run: as §2

[7] = tested on: S. aureus ATCC BAA-44 (MRSA SCCmec type I); experiment: MIC, broth dilution; format: cell-based, Staphylococcus aureus; conditions: Table 5; STIP3 variants, highest concentration 100 μg/mL
How it was run: as §2

[8] = tested on: S. aureus ATCC BAA-41 (MRSA SCCmec type II); experiment: MIC, broth dilution; format: cell-based, Staphylococcus aureus; conditions: Table 5; STIP3 variants, highest concentration 100 μg/mL
How it was run: as §2

[9] = tested on: S. aureus ATCC BAA-2313 (MRSA SCCmec type XI); experiment: MIC, broth dilution; format: cell-based, Staphylococcus aureus; conditions: Table 5; STIP3 variants, highest concentration 100 μg/mL
How it was run: as §2

[10] = tested on: Saccharomyces cerevisiae AR 399; experiment: MIC, YPD broth, CDC and FDA AR Candida isolate panel; format: cell-based; conditions: Table 9 top part: titrations from 1.56 to 100 μg/mL
How it was run: as §1

[11] = tested on: Candida lusitaniae AR 398; experiment: as above; format: cell-based; conditions: Table 9 top part: titrations from 1.56 to 100 μg/mL
How it was run: as §1

[12] = tested on: Saccharomyces cerevisiae AR 400; experiment: as above; format: cell-based; conditions: Table 9 top part: titrations from 1.56 to 100 μg/mL
How it was run: as §1

Candida krusei AR 397 = experiment: as above; format: cell-based; conditions: Table 9 top part: titrations from 1.56 to 100 μg/mL
How it was run: as §1

Chain of SspA protease (P0C1U8 69-336): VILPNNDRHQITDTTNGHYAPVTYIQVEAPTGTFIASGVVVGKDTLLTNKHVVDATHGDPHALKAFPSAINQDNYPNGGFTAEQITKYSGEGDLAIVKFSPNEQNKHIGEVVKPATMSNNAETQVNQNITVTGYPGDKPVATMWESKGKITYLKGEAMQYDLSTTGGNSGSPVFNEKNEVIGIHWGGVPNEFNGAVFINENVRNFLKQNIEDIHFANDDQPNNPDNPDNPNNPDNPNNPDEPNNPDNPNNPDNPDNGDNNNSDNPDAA

Compound	MIC C. albicans MYA-2876 (C. albicans MYA-2876)	susceptibility to SspA cleavage (SspA protease)	MIC (μg/mL) M. haemolytica [1]	MIC (μg/mL) Candida duobushaemulonii AR 392 [2]	MIC (μg/mL) Kodamae ohmeri AR 396 (Kodamae ohmeri AR 396)	α helicity (%) [3] [%]	IC50, HeLa cell survival (HeLa cells) [µg/mL]	MIC (μg/mL) M. luteus (M. luteus ATCC 4698) [µg/mL]	MIC S. aureus ATCC BAA 42 (VI) [4] [µg/mL]	MIC S. aureus ATCC BAA 2094 (V) [5] [µg/mL]	MIC S. aureus ATCC 33592 (III) [6] [µg/mL]	MIC (μg/mL) S. aureus (S. aureus ATCC 29213; Table 4, liquid broth) [µg/mL]	MIC S. aureus ATCC 29213 (S. aureus ATCC 29213; Table 5, STIP3 variants, highest concentration 100 μg/mL) [µg/mL]	MIC S. aureus ATCC BAA 44 (I) [7] [µg/mL]	MIC S. aureus ATCC BAA 41 (II) [8] [µg/mL]	MIC S. aureus ATCC BAA 2313 (XI) [9] [µg/mL]	MIC (μg/mL) Saccharomyces cerevisiae AR 399 [10] [µg/mL]	MIC (μg/mL) Candida lusitaniae AR 398 [11] [µg/mL]	MIC (μg/mL) Saccharomyces cerevisiae AR 400 [12] [µg/mL]	MIC (μg/mL) Candida krusei AR 397 (Candida krusei AR 397) [µg/mL]
H-MTKDIVETVGGLVKWILDTVKKFA [δ-toxin (df), reference compound]	100 µg/mL	susceptible to SspA cleavage in vitro	> (> symbol indicates that no inhibition was observed at the highest concentration of peptide tested: 25 μg/mL)	> (MIC values reported at the top of the table (above the double line) are based on titrations from 1.56 to 100 μg/mL)	> (MIC values reported at the top of the table (above the double line) are based on titrations from 1.56 to 100 μg/mL)	87	–	–	–	–	–	–	–	–	–	–	–	–	–	–
TVGGLVKWILDTVKKFA [STIP3-1, TVGGLVKWILDTVKKFA]	25 µg/mL	cleave the bioactive peptide into an inactive mixture	–	–	–	–	200 ± 30	12.5	100	100	100	100	100	100	100	100	50	100	12.5	25
CC[C@H](C)[C@H](NC(=O)[C@H](Cc1c[nH]c2ccccc12)NC(=O)[C@H](CCCCN)NC(=O)[C@@H](NC(=O)[C@H](CC(C)C)NC(=O)CNC(=O)CNC(=O)[C@@H](NC(=O)[C@@H](NC(=O)[C@H](CCC(=O)O)NC(=O)[C@@H](NC(=O)[C@@H](NC(=O)[C@H](CC(=O)O)NC(=O)[C@H](CCCCN)NC(=O)[C@@H](NC(=O)[C@H](CCSC)NC=O)[C@@H](C)O)[C@@H](C)CC)C(C)C)[C@@H](C)O)C(C)C)C(C)C)C(=O)N[C@@H](CC(C)C)C(=O)N[C@@H](CC(=O)O)C(=O)N[C@H](C(=O)N[C@H](C(=O)N[C@@H](CCCCN)C(=O)N[C@@H](CCCCN)C(=O)N[C@@H](Cc1ccccc1)C(=O)N[C@@H](C)C(=O)O)C(C)C)[C@@H](C)O [δ-toxin, reference compound] (For-MTKDIVETVGGLVKWILDTVKKFA-OH)	> (> symbol indicates that no inhibition was observed at the highest concentration of peptide tested: 100 μg/mL)	formylation protected against proteolysis	> (> symbol indicates that no inhibition was observed at the highest concentration of peptide tested: 25 μg/mL)	> (MIC values reported at the top of the table (above the double line) are based on titrations from 1.56 to 100 μg/mL)	> (MIC values reported at the top of the table (above the double line) are based on titrations from 1.56 to 100 μg/mL)	88	230 ± 30 (≈ 84.6 µM)	–	–	–	–	–	–	–	–	–	–	–	–	–

From patent US12370235B2, “Synthetic, non-natural antimicrobial peptides inspired by Staphylococcus auricularis delta toxin” (University of Saskatchewan, priority 2021, dated 2025)
